Results published in PMC5482217 (Journal of the American Chemical Society, 2016).
Converted amounts (≈) assume the structure as drawn.

What was measured:
S. enteritidis = type: cell-based
B. abortus = type: cell-based
S. flexneri = type: cell-based
M. tuberculosis [1] = type: cell-based
C. elegans = details: in vivo, 50 µM
E. coli = type: cell-based
S. aureus = type: cell-based
[2] = test system: S. aureus clinical isolate that forms biofilms; type: cell-based
M. tuberculosis [3] = details: after 10 days; cited from earlier work

SMILES	MIC (S. enteritidis) [µM]	MIC (B. abortus) [µM]	MIC (S. flexneri) [µM]	MIC (M. tuberculosis [1]) [µM]	MIC (M. smegmatis) [µM]	viability of C. elegans (C. elegans)	MIC (E. coli) [µM]	MIC (S. aureus) [µM]	MIC [2] [µM]	reduction in M. tuberculosis levels within THP-1 macrophages (M. tuberculosis [3])
NC[C@H]1O[C@H](O[C@H]2[C@H](O)[C@@H](O[C@H]3O[C@H](CO)[C@@H](O)[C@H](N)[C@H]3O)[C@H](N)C[C@@H]2N)[C@H](O)[C@@H](O)[C@@H]1O [kanamycin]	16 (≈ 7.75 µg/mL)	4 (≈ 1.94 µg/mL)	2 (≈ 0.969 µg/mL)	2 (≈ 0.969 µg/mL)	8 (≈ 3.88 µg/mL)	> 90%	2 (≈ 0.969 µg/mL)	2 (≈ 0.969 µg/mL)	4 (≈ 1.94 µg/mL)	about 50%
CC[C@H](C)[C@H](NC(=O)CN)C(=O)NCC(=O)N[C@@H](C)C(=O)N[C@H](C(=O)N[C@@H](CC(C)C)C(=O)N[C@@H](CCCCN)C(=O)N[C@H](C(=O)N[C@@H](CC(C)C)C(=O)N[C@H](C(=O)N[C@H](C(=O)NCC(=O)N[C@@H](CC(C)C)C(=O)N1CCC[C@H]1C(=O)N[C@@H](C)C(=O)N[C@@H](CC(C)C)C(=O)N[C@H](C(=O)N[C@@H](CO)C(=O)N[C@@H](Cc1c[nH]c2ccccc12)C(=O)N[C@H](C(=O)N[C@@H](CCCCN)C(=O)N[C@@H](CCCNC(=N)N)C(=O)N[C@@H](CCCCN)C(=O)N[C@@H](CCCNC(=N)N)C(=O)N[C@@H](CCC(N)=O)C(=O)N[C@@H](CCC(N)=O)C(N)=O)[C@@H](C)CC)[C@@H](C)CC)[C@@H](C)O)[C@@H](C)O)C(C)C)C(C)C [melittin]						no live worms				
